{"source": "patent US12605374B2", "about": "“Methods for drug screening and compositions useful for the inhibition of cell proliferation and/or cell survival” (The Brigham and Women's Hospital, Inc., priority 2019, dated 2026)", "key": {"[1]": {"molecular_target": "T1, recombinant human Topoisomerase I (Homo sapiens, UniProt P11387)", "T1 construct": "purchased TopoGEN, Inc. TG2005H", "T1 sequence (P11387 1-765)": "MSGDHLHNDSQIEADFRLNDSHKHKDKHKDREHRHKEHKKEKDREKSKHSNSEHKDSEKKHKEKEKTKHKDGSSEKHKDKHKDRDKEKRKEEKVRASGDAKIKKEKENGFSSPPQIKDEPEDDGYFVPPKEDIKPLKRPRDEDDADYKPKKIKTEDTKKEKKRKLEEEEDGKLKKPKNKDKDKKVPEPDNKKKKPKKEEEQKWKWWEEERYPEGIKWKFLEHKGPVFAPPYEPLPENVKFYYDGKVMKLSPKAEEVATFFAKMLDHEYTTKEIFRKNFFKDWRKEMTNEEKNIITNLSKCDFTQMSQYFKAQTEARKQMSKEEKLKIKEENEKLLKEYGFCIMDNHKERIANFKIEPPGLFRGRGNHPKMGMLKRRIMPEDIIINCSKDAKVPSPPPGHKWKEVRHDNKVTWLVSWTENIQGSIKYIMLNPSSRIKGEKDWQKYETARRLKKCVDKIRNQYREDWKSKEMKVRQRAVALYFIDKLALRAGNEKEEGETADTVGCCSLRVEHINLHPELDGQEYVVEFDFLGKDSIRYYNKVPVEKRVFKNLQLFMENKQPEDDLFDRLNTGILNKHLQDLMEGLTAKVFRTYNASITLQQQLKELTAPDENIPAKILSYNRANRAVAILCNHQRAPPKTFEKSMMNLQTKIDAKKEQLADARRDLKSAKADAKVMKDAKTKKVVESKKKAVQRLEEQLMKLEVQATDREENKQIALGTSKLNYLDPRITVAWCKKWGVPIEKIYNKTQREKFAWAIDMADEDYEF", "assay": "Topoisomerase I and DNA binding gel electrophoresis assay", "format": "biochemical", "settings": "concentrations up to 100 mM (so in the source), versus DMSO", "experimental": "FIG. 12: Topoisomerase I and DNA binding assay for DA5. The effect of DA5 on Topoisomerase-mediated DNA unwinding is measured through a gel electrophoresis assay (see Methods).\n0.5 ug of pHOT-1 supercoiled DNA (TopoGEN, Inc. TG2030-2) was combined with 2× Topoisomerase I assay buffer (50 mM Tris-HCL (ph7.9), 1 mM EDTA, 1 mM DTT, 20% (v/v) glycerol, 50 mM NaCl), nuclease free water and either DMSO vehicle control, m-AMSA positive control (100-1000 uM; TopoGEN, Inc. […] TG2005H) was added to treatments corresponding to lanes 3-12 with 2 ul of dilution buffer (5 mM Tris-HCL (pH 7.9), 1 mM EDTA, 1 mM DTT, 50% (v/v) glycerol, 500 mM NaCl) added to control treatments lacking enzyme (lanes 2, 13 and 14). Reactions were mixed and incubated at 37° C. for 30 minutes. Reactions were terminated with the addition of 20 ul nuclease free water and 50 ul of 1-butanol (water-saturated) followed by vortex and centrifugation at 13,000 rpm for 1 minute. The lower aqueous phase was removed and added to 50 ul chloroform/isoamyl alcohol (24/1) and 50 ul of 2×STEB buffer (40% (w/v) sucrose, 100 mM Tris-HCL (pH 8), 1 mM EDTA, 0.5 mg/ml bromophenol blue) followed by mixing and centrifugation at 13,000 rpm for 1 minute. […] The gel was stained with ethidium bromide for 15 minutes followed by de-staining in distilled water for 10 minutes. Gels were exposed and images acquired using the iBrightFL1000 gel documentation system (Invitrogen)."}, "[2]": {"test_system": "zebrafish embryos", "assay": "Respiration rate analysis (Seahorse XF24 oxygen consumption)", "format": "in vivo", "settings": "embryos from 5 hpf, versus DMSO control", "experimental": "Analysis of embryonic respiration was performed using a Seahorse XF24 analyzer (Agilent). Embryos at 5 hours post fertilization were arrayed in E3 media at 3 per well in a 24-well standard Seahorse plate using an isolating mesh (as in Stackley et al^72). Each plate contained four replicates of each indicated compound of interest, as well as 4 control wells receiving the equivalent DMSO as contained in the indicated compound solution, and 4 wells with no embryos present to act as a baseline for oxygen content of the media. The sample baseline was read for 5 cycles (3 minute mix, 2 minute wait, 5 minute measure), then compounds were introduced in a single 40-cycle injection phase (3 minute mix, 2 minute wait, 5 minute measure). Measurement data were exported using Seahorse software (Agilent) and averaged over 3 experimental days."}}}
{"smiles": "CC[C@@]1(O)C(=O)OCc2c1cc1n(c2=O)Cc2cc3ccccc3nc2-1", "note": "[Camptothecin, reference compound]", "values": [{"measurement": "effect on Topoisomerase-mediated DNA unwinding (gel electrophoresis)", "setting": "[1]", "result": "dose-dependent effect on the amount of circular DNA present"}]}
{"smiles": "CC[C@@H]1/C=C/C=C/C[C@H](C)[C@H](O)[C@](C)(O)C(=O)[C@H](C)[C@@H](O)[C@H](C)C(=O)[C@H](C)[C@@H](O)[C@H](C)/C=C/C(=O)O[C@H]2[C@@H](C)[C@@H](CC1)O[C@@]1(CC[C@@H](C)[C@@H](C[C@H](C)O)O1)[C@@H]2C", "note": "[oligomycin A, reference compound]", "values": [{"measurement": "respiration rate (oxygen consumption rate)", "setting": "[2]", "result": "exponential reduction in respiration rate stabilizing at a baseline rate"}]}
